Like-named read-outs stand apart in the source and are kept apart here.

Data on 6 molecules can be found in patent US5639469A, “Transmucosal delivery system” (Minnesota Mining and Manufacturing Company, priority 1994, dated 1997).

The nature of series [1]: In vivo rat model: plasma anti Xa after buccal dosing of gel. The following applies: Gel Formulation 11. More on the design: species or system rat (Wistar preferred). The procedure:
The in vivo delivery of heparinic anticoagulant from a gel is determined using a rat model.
This method uses rats of 220 to 500 grams in weight. Wistar rats are the preferred strain. The rats are anesthetized with ether and then a 2 cm vertical incision is made first through the skin and then through the underlying muscle. The esophagus is isolated and tied off with a surgical ligature. The incision is closed with a surgical stapler. After surgery the rats are dosed with the gel by syringe administration with half of the total dose in each cheek. The rats are slightly reanesthesized for dosing and blood withdrawal. Blood samples are withdrawn at 0, 1, 2, 3 and 4 hours post dose. Heparinic anticoagulant concentrations in plasma are determined by an enzymatic method measuring anti Xa using a test kit (Stachrom™ Heparin from Diagnostica Stago, 9 rue des Freres Chausson, 92600 Asnieres-sur Seine, France). Results are reported as the number of anti Xa units per mL of plasma.
A formulation was prepared according to the method set forth above in connection with Gel Formulation 1, except that the sodium dodecyl sulfate was eliminated and the penetration enhancers shown in Table 15 below were incorporated at 2, 5 and/or 10 percent by weight based on the total weight of the gel formulation. Low molecular weight heparin (mean molecular weight from 3450 to 4950 daltons with anti Xa of 65 to 144 units/mg, Bioiberica, Barcelona, Spain) was incorporated at concentrations of 10, 25 and 50 mg of heparin per mL of gel. In vivo delivery was determined using the rat model described above. Each rat was dosed with 0.2 mL of gel formulation to provide the dose of heparin shown in Table 15, wherein "n" designates the number of rats studied. The values obtained were used to calculate the promoting effect (P for each formulation. The promoting effect was calculated using the equation given below: [formula] where: Cmax (H) is equal to the maximal anti Xa activity in plasma after heparin administration without enhancer and Cmax (H+E) is equal to the maximal anti Xa activity in plasma after heparin administration with the enhancer. The results are shown in Table 15 below.

The test system of another series is Xa. The conditions noted are these: cited from earlier work.
Setting [2] is: enhancer 5 wt%, heparin 5 mg/rat.

Turning to `CCCCCCCCCCCCCCCC(=O)OC(CC(=O)O)C[N+](C)(C)C` (racemic) [Palmitoyl DL carnitine chloride], in series [1] (enhancer 10 wt%, heparin 10 mg/rat), the “promoting effect (P %)” value was “+142%”. Turning to `C[C@H](CCC(=O)NCCC[N+](C)(C)CCCS(=O)(=O)[O-])[C@H]1CC[C@H]2[C@@H]3[C@H](O)C[C@@H]4C[C@H](O)CC[C@]4(C)[C@H]3C[C@H](O)[C@]12C` [CHAPS], the “promoting effect (P %)” value in series [1] (setting [2]) is on record as “+2%”. On the same count and under the same terms, under `O=C1CCCN1` [Pyrrolidone] stands -31%.

On to `C[C@H](CCC(=O)O)[C@H]1CC[C@H]2[C@@H]3CC[C@@H]4C[C@H](O)CC[C@]4(C)[C@H]3C[C@H](O)[C@]12C` [Sodium deoxycholate], for which the “promoting effect (P %)” value in series [1] (enhancer 2 wt%, heparin 5 mg/rat) is on record as “+117%”; in series [1] (setting [2]) it was “+122%”. For the molecule `CCCCCCCCCCCCOS(=O)(=O)[O-].[Na+]` [Sodium dodecyl sulfate], in series [1] (setting [2]), the “promoting effect (P %)” value is listed as “+189%”. In the case of Low molecular weight heparin, the “anti Xa” value in the series with Xa (mean molecular weight 3450 daltons, Bioiberica) is given as 138 units/mg; in the series with Xa (mean molecular weight 5300 daltons, Bioiberica), 144 units/mg; with Xa (molecular weight 3949, Bioiberica), 113 units/mg.
